According to the supplement of paper PMC10307832:

How the values were obtained:
Test in all cases: relative viability (nuclei count vs DMSO), 5 days (fraction); higher = more cells survive
MK-2206 + Vorinostat = compound: NC1(c2ccc(-c3nc4ccn5c(=O)[nH]nc5c4cc3-c3ccccc3)cc2)CCC1 [MK-2206] + O=C(CCCCCCC(=O)Nc1ccccc1)NO [Vorinostat] (partner 1 µM)
In short: (§1)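 Lung cancer cell lines were pin-tool dosed in 1536-well plates on the day after seeding, with either a lone drug or a fixed anchor-drug dose plus five library-drug doses (not always all listed) in √10 steps. Nuclei were counted on 4× images after 5 days. Relative viability is the ratio of treated-well to vehicle-well nuclei counts, with each value a median of duplicate plates.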

Pictilisib = compound: CS(=O)(=O)N1CCN(Cc2cc3nc(-c4cccc5[nH]ncc45)nc(N4CCOCC4)c3s2)CC1 [Pictilisib]
In short: (§2)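 In 1536-well plates, lung cancer cell lines rested overnight at 37 °C before five library-drug doses (not always all listed), √10 apart, were pinned onto vehicle-anchored plates. Nuclei were counted with MetaXpress from 4× Hoechst images taken after 5 days without medium change. Viability compares treated-well with vehicle-well nuclei as a median over plates, and plates needed control CV below 25% plus at least one doubling to pass.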

MK-2206 = compound: NC1(c2ccc(-c3nc4ccn5c(=O)[nH]nc5c4cc3-c3ccccc3)cc2)CCC1 [MK-2206]
In short: as §2

Pictilisib + Lapatinib = compound: CS(=O)(=O)N1CCN(Cc2cc3nc(-c4cccc5[nH]ncc45)nc(N4CCOCC4)c3s2)CC1 [Pictilisib] + CS(=O)(=O)CCNCc1ccc(-c2ccc3ncnc(Nc4ccc(OCc5cccc(F)c5)c(Cl)c4)c3c2)o1 [Lapatinib] (partner 2 µM)
In short: as §1

| Cell Line | relative viability (MK-2206 + Vorinostat; first compound 0.01 µM) | relative viability (MK-2206 + Vorinostat; first compound 0.03162 µM) | relative viability (MK-2206 + Vorinostat; first compound 0.3162 µM) | relative viability (MK-2206 + Vorinostat; first compound 1 µM) | relative viability (Pictilisib; 0.02 µM) | relative viability (Pictilisib; 0.06325 µM) | relative viability (Pictilisib; 0.6325 µM) | relative viability (Pictilisib; 1 µM, anchor plate) | relative viability (Pictilisib; 2 µM) | relative viability (MK-2206; 0.01 µM) | relative viability (MK-2206; 0.03162 µM) | relative viability (MK-2206; 0.3162 µM) | relative viability (MK-2206; 1 µM) | relative viability (Pictilisib + Lapatinib; first compound 0.02 µM) | relative viability (Pictilisib + Lapatinib; first compound 0.06325 µM) | relative viability (Pictilisib + Lapatinib; first compound 0.6325 µM) | relative viability (Pictilisib + Lapatinib; first compound 2 µM) |
| --- | --- | --- | --- | --- | --- | --- | --- | --- | --- | --- | --- | --- | --- | --- | --- | --- | --- |
| NCI-H441 | 0.76 | 0.707 | 0.701 | 0.565 | 1.01 | 1.06 | 0.595 | 0.514 | 0.48 | 1.09 | 1.05 | 0.845 | 0.921 | – | – | – | – |
| NCI-H1623 | – | – | – | – | 0.962 | 0.94 | 0.664 | – | 0.341 | 0.957 | 1.07 | 0.946 | 0.914 | – | – | – | – |
| NCI-H1437 | 0.879 | 0.846 | 0.964 | 0.821 | 1.03 | 1.06 | 0.902 | 0.482 | 0.528 | 0.993 | 0.963 | 1.07 | 0.925 | 0.768 | 0.859 | 0.605 | 0.313 |
| PC-14 | 0.73 | 0.79 | 0.55 | 0.669 | 1.1 | 1.14 | 0.994 | 0.672 | 0.703 | 0.937 | 1.02 | 0.991 | 1 | 0.34 | 0.302 | 0.236 | 0.113 |
| LCLC-103H | 0.764 | 0.827 | 0.701 | 0.743 | 1.05 | 0.984 | 0.707 | 0.625 | 0.663 | 0.923 | 0.984 | 0.982 | 1.11 | – | – | – | – |
| COR-L23 | 0.462 | 0.52 | 0.426 | 0.408 | 1.14 | 1.1 | 1.03 | 0.807 | 0.763 | 1.01 | 1.05 | 1.03 | 0.99 | 1.2 | 1.08 | 0.993 | 0.77 |
| H3255 | 0.779 | 0.803 | 0.724 | 0.617 | 1.01 | 0.962 | 0.862 | 0.46 | 0.531 | 0.941 | 1.01 | 0.836 | 0.826 | 0.237 | 0.222 | 0.153 | 0.124 |
| NCI-H2126 | 0.718 | 0.789 | 0.608 | 0.623 | 0.999 | 0.992 | 0.806 | 0.52 | 0.57 | 1.04 | 1.03 | 0.913 | 0.92 | 0.801 | 0.748 | 0.63 | 0.462 |
| HCC-366 | 0.341 | 0.448 | 0.26 | 0.254 | 0.986 | 1.02 | 0.851 | 0.159 | 0.448 | 1.02 | 1.02 | 0.978 | 0.98 | 1.04 | 1 | 0.665 | 0.162 |
| LU99A | 0.456 | 0.529 | 0.473 | 0.49 | 1.01 | 0.971 | 0.794 | 0.327 | 0.425 | 1.01 | 1.07 | 0.961 | 1.02 | 0.98 | 1.04 | 0.574 | 0.372 |
